Source: PMC11062899, “De novo development of small cyclic peptides that are orally bioavailable” (Nature Chemical Biology, 2023)
Several values for one entry are separate records, joined by “and”; a condition that tells them apart may be missing. Equal values may be shown once. Read-outs that look alike come from different tables or passages of the source. Values belong to the molecule of their own block, whether it stands above or below them.

Columns and labels:
rat α-thrombin = target: T1, rat α-thrombin (Rattus norvegicus, UniProt P18292); experiment: Protease inhibition, Ki for rat α-thrombin (fluorogenic substrate Z-Gly-Gly-Arg-AMC); format: biochemical; settings: for Slope normalized to DMSO (proteolytic substrate cleavage over time) / Rat alpha thrombin inhibition, slope normalized to DMSO: replicates R1-R3; for IC50: read-out: IC50
T1 construct: rat α-thrombin (Molecular Innovations) were used at final concentrations of 2 nM and 3 nM; purchased Molecular Innovations
Summary of the method: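 Ki values come from Cheng–Prusoff correction of IC50, itself fitted by four-parameter logistic regression of activity versus a no-peptide control. Assays used 2 nM human or 3 nM rat thrombin, 50 μM Z-Gly-Gly-Arg-AMC, 30 min kinetic fluorescence at 25 °C.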

porcine pepsin = target: T2, porcine pepsin (Sus scrofa, UniProt P00791); experiment: Peptide stability in simulated gastric fluid (SGF); format: in vitro ADME; set-up: remaining at 8 h: dose or concentration left out as unconfirmed; settings: for SGF stability, Residual peptide: single replicates R1-R3; for remaining at 8 h: pH 1.2
T2 construct: 0.32 g of porcine pepsin (Sigma-Aldrich, P7125) was dissolved under gentle agitation; purchased Sigma-Aldrich P7125
Summary of the method: (§1)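 Peptide from a 1 mM DMSO stock was added to fluid pre-warmed at 37 °C. SGF was pH 1.2 NaCl with porcine pepsin (0.32 g per 100 ml), and SIF was pH 6.8 potassium phosphate with porcine pancreatin (1 g per 100 ml). Supernatant peptide was quantified by LC–MS, with residual expressed as T1/T0.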

[1] = Passive artificial membrane permeability (PAMPA); settings: for PAMPA permeability: % permeability: 50 μM, 12–18 h, acceptor concentration relative to equilibrium; for Papp at 50 μM / Permeability% Average / Permeability% R1 / Permeability% R3: PAMPA; for Papp at 50 μM: pH 7.4; for Permeability% Average: average of R1-R3; for Permeability% R1: replicate R1; for Permeability% R1 / Permeability% R3: TIC of top well sample relative to sample at theoretical equilibrium; for Permeability% R3: replicate R3
[2] = Peptide stability in simulated intestinal fluid (SIF); format: in vitro ADME, porcine; settings: simulated gi fluid, 8 h, 37 °C, pH 6.8, read-out: Proteolytic stability: SIF (8 h) % remaining
Summary of the method: as §1

porcine pancreatin = experiment: as above; format: in vitro ADME; settings: after 8 h vs 0 h (TIC); for SIF stability, Residual peptide Average: average of R1-R3
Summary of the method: as §1

[3] = Metabolic stability in rat liver microsomes (RLMs); settings: rat, microsomes
[4] = average of R1-R3, read-out: Ki Average
[5] = peptide 1.33E+02 uM, slope of proteolytic substrate cleavage over time
[6] = single replicates R1-R3, read-out: Ki
[7] = CL (ul/min/mg protein) R1, RLM CL, replicate R1
[8] = CL (ul/min/mg protein) R2, RLM CL, replicate R2
[9] = CL (ul/min/mg protein) R3, RLM CL, replicate R3
[10] = Half Life (min) R1, RLM metabolic stability, replicate R1, 0-60 min
[11] = Half Life (min) R2, RLM metabolic stability, replicate R2, 0-60 min
[12] = Half Life (min) R3, RLM metabolic stability, replicate R3, 0-60 min
[13] = Metabolic stability: RLM CL (ul/min/mg), RLMs, mean and SD, three measurements
[14] = Metabolic stability: RLM CL R1, summary table, rounded, replicate R1
[15] = Metabolic stability: RLM CL R2, summary table, rounded, replicate R2
[16] = Metabolic stability: RLM CL R3, summary table, rounded, replicate R3

T2 sequence (P00791 60-385): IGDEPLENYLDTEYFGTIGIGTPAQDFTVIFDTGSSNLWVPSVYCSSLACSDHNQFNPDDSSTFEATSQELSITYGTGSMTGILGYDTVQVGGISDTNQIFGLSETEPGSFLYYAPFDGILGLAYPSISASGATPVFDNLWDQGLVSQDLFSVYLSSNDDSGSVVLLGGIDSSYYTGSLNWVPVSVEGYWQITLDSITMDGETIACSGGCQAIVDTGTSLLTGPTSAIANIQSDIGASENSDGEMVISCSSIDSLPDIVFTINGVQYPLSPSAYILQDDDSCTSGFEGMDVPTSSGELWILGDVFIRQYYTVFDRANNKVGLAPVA

Ki (rat α-thrombin; [4]): 357 nM | Slope normalized to DMSO (proteolytic substrate cleavage over time) (rat α-thrombin; peptide 1.02E-03 uM): 100.5 and 96.1 and 105.7 | Slope normalized to DMSO (proteolytic substrate cleavage over time) (rat α-thrombin; peptide 1.04E+00 uM): 47.3 and 45.5 and 46.2 | Slope normalized to DMSO (proteolytic substrate cleavage over time) (rat α-thrombin; peptide 1.27E-04 uM): 98.2 and 95.5 and 104.0 | Slope normalized to DMSO (proteolytic substrate cleavage over time) (rat α-thrombin; peptide 1.30E-01 uM): 88.1 and 88.0 and 95.1 | Rat alpha thrombin inhibition, slope normalized to DMSO (rat α-thrombin; [5]): 29.3 and 31.0 and 24.5 | Slope normalized to DMSO (proteolytic substrate cleavage over time) (rat α-thrombin; peptide 1.63E-02 uM): 95.3 and 90.7 and 94.2 | Rat alpha thrombin inhibition, slope normalized to DMSO (rat α-thrombin; peptide 1.67E+01 uM): 11.1 and 9.5 and 16.8 | Slope normalized to DMSO (proteolytic substrate cleavage over time) (rat α-thrombin; peptide 2.03E-03 uM): 96.6 and 95.4 and 92.0 | Rat alpha thrombin inhibition, slope normalized to DMSO (rat α-thrombin; peptide 2.08E+00 uM): 34.7 and 33.7 and 44.2 | Slope normalized to DMSO (proteolytic substrate cleavage over time) (rat α-thrombin; peptide 2.54E-04 uM): 95.8 (2×) and 100.3 | Slope normalized to DMSO (proteolytic substrate cleavage over time) (rat α-thrombin; peptide 2.60E-01 uM): 75.1 and 76.7 and 74.0 | Slope normalized to DMSO (proteolytic substrate cleavage over time) (rat α-thrombin; peptide 3.18E-05 uM): 100.9 and 96.6 and 106.2 | Slope normalized to DMSO (proteolytic substrate cleavage over time) (rat α-thrombin; peptide 3.26E-02 uM): 100.1 and 92.2 and 91.8 | Rat alpha thrombin inhibition, slope normalized to DMSO (rat α-thrombin; peptide 3.33E+01 uM): 8.8 and 9.0 and 13.6 | Slope normalized to DMSO (proteolytic substrate cleavage over time) (rat α-thrombin; peptide 4.07E-03 uM): 100.3 and 98.9 and 95.8 | Rat alpha thrombin inhibition, slope normalized to DMSO (rat α-thrombin; peptide 4.17E+00 uM): 29.3 and 26.2 and 29.7 | Slope normalized to DMSO (proteolytic substrate cleavage over time) (rat α-thrombin; peptide 5.09E-04 uM): 99.8 and 96.7 and 105.4 | Slope normalized to DMSO (proteolytic substrate cleavage over time) (rat α-thrombin; peptide 5.21E-01 uM): 62.1 and 60.1 and 59.5 | Slope normalized to DMSO (proteolytic substrate cleavage over time) (rat α-thrombin; peptide 6.36E-05 uM): 99.5 and 99.0 and 105.5 | Slope normalized to DMSO (proteolytic substrate cleavage over time) (rat α-thrombin; peptide 6.51E-02 uM): 92.1 and 90.2 and 94.2 | Rat alpha thrombin inhibition, slope normalized to DMSO (rat α-thrombin; peptide 6.67E+01 uM): 22.0 and 23.9 and 12.4 | Slope normalized to DMSO (proteolytic substrate cleavage over time) (rat α-thrombin; peptide 8.14E-03 uM): 88.9 and 94.1 and 99.5 | Rat alpha thrombin inhibition, slope normalized to DMSO (rat α-thrombin; peptide 8.33E+00 uM): 16.6 and 15.4 and 23.2 | IC50 (rat α-thrombin; single replicates R1-R3): 640 nM and 631 nM and 666 nM | Ki (rat α-thrombin; [6]): 354 nM and 349 nM and 368 nM | SGF stability, Residual peptide Average (porcine pepsin; after 8 h vs 0 h (TIC), average of R1-R3): 95.02 | SGF stability, Residual peptide (porcine pepsin; after 8 h vs 0 h (TIC)): 100.52 and 97.58 and 86.97 | remaining at 8 h (porcine pepsin; pig, simulated gi fluid, 8 h, 37 °C, read-out: Proteolytic stability: SGF (8 h) % remaining): 95 ± 7% | PAMPA permeability: % permeability [1]: 1.27 ± 0.67% | Papp at 50 μM [1]: 0.0776 ×10⁻⁶ cm/s | Permeability% Average [1]: 1.3% | Permeability% R1 [1]: 2.04% | Permeability% R3 [1]: 1.01% | remaining at 8 h ([2]; pig): 87 ± 11% | SIF stability, Residual peptide Average (porcine pancreatin): 87.22 | SIF stability, Residual peptide (porcine pancreatin; single replicates R1-R3): 90.22 and 74.69 and 96.74 | microsomal CLint [3, 7]: 78.3 µL/min/mg | microsomal CLint [3, 8]: 132 µL/min/mg | microsomal CLint [3, 9]: 141 µL/min/mg | half-life [3, 10]: 17.7 min | half-life [3, 11]: 10.5 min | half-life [3, 12]: 9.82 min | microsomal CLint [3, 13]: 117 ± 28 µL/min/mg | microsomal CLint [3, 14]: 78.3 µL/min/mg | microsomal CLint [3, 15]: 132 µL/min/mg | microsomal CLint [3, 16]: 141 µL/min/mg | half-life ([3]; pH 7.4, Metabolic stability: Half life T1/2 (min), RLMs, mean and SD, three measurements): 12.7 ± 3.6 min | microsomal CLint ([3]; pH 7.4, Metabolic stability: RLM CL Average, summary table, average of R1-R3): 117 µL/min/mg
SMILES: CN1CCC(=O)NCCSCCS(=O)(=O)CCSC[C@H](NC(=O)c2ccc(Cl)s2)C(=O)N[C@@H](Cc2ccccc2)C1=O [compound 14]

Ki (rat α-thrombin; [4]): 36.8 nM | Slope normalized to DMSO (proteolytic substrate cleavage over time) (rat α-thrombin; peptide 1.02E-03 uM): 94.9 and 90.5 and 126.3 | Slope normalized to DMSO (proteolytic substrate cleavage over time) (rat α-thrombin; peptide 1.04E+00 uM): 9.4 and 10.0 and 7.6 | Slope normalized to DMSO (proteolytic substrate cleavage over time) (rat α-thrombin; peptide 1.27E-04 uM): 95.1 and 96.6 and 96.3 | Slope normalized to DMSO (proteolytic substrate cleavage over time) (rat α-thrombin; peptide 1.30E-01 uM): 36.1 and 35.6 and 32.6 | Rat alpha thrombin inhibition, slope normalized to DMSO (rat α-thrombin; [5]): 7.9 and 5.3 and 6.2 | Slope normalized to DMSO (proteolytic substrate cleavage over time) (rat α-thrombin; peptide 1.63E-02 uM): 78.2 and 76.9 and 78.3 | Rat alpha thrombin inhibition, slope normalized to DMSO (rat α-thrombin; peptide 1.67E+01 uM): 4.9 and 5.1 and 4.0 | Slope normalized to DMSO (proteolytic substrate cleavage over time) (rat α-thrombin; peptide 2.03E-03 uM): 89.6 and 92.6 and 90.5 | Rat alpha thrombin inhibition, slope normalized to DMSO (rat α-thrombin; peptide 2.08E+00 uM): 5.8 and 4.5 and 4.3 | Slope normalized to DMSO (proteolytic substrate cleavage over time) (rat α-thrombin; peptide 2.54E-04 uM): 95.9 and 93.5 and 98.7 | Slope normalized to DMSO (proteolytic substrate cleavage over time) (rat α-thrombin; peptide 2.60E-01 uM): 24.9 and 24.5 and 24.7 | Slope normalized to DMSO (proteolytic substrate cleavage over time) (rat α-thrombin; peptide 3.18E-05 uM): 97.8 and 96.7 and 99.3 | Slope normalized to DMSO (proteolytic substrate cleavage over time) (rat α-thrombin; peptide 3.26E-02 uM): 68.3 and 65.8 and 66.5 | Rat alpha thrombin inhibition, slope normalized to DMSO (rat α-thrombin; peptide 3.33E+01 uM): 4.3 and 4.0 and 4.9 | Slope normalized to DMSO (proteolytic substrate cleavage over time) (rat α-thrombin; peptide 4.07E-03 uM): 90.1 and 88.8 and 91.4 | Rat alpha thrombin inhibition, slope normalized to DMSO (rat α-thrombin; peptide 4.17E+00 uM): 4.1 and 2.6 and 2.8 | Slope normalized to DMSO (proteolytic substrate cleavage over time) (rat α-thrombin; peptide 5.09E-04 uM): 95.0 and 94.4 and 95.5 | Slope normalized to DMSO (proteolytic substrate cleavage over time) (rat α-thrombin; peptide 5.21E-01 uM): 15.5 and 14.5 | Slope normalized to DMSO (proteolytic substrate cleavage over time) (rat α-thrombin; peptide 6.36E-05 uM): 97.1 and 98.7 and 90.6 | Slope normalized to DMSO (proteolytic substrate cleavage over time) (rat α-thrombin; peptide 6.51E-02 uM): 52.7 and 50.7 and 50.5 | Rat alpha thrombin inhibition, slope normalized to DMSO (rat α-thrombin; peptide 6.67E+01 uM): 3.6 and 3.0 and 1.8 | Slope normalized to DMSO (proteolytic substrate cleavage over time) (rat α-thrombin; peptide 8.14E-03 uM): 84.4 | Rat alpha thrombin inhibition, slope normalized to DMSO (rat α-thrombin; peptide 8.33E+00 uM): 4.9 (2×) and 4.3 | IC50 (rat α-thrombin; single replicates R1-R3): 71.7 nM and 68.3 nM and 59.7 nM | Ki (rat α-thrombin; [6]): 39.7 nM and 37.8 nM and 33 nM (2×) | SGF stability, Residual peptide (porcine pepsin; after 8 h vs 0 h (TIC)): 36.24 and 43.40 and 29.72 | remaining at 8 h (porcine pepsin; pig, simulated gastric fluid (SGF, USP) with porcine pepsin, after 8 h vs 0 h (TIC), average of R1-R3, read-out: SGF stability, Residual peptide Average): 36.5% | remaining at 8 h (porcine pepsin; simulated gi fluid, 8 h, 37 °C, read-out: Proteolytic stability: SGF (8 h) % remaining): 36 ± 7% | PAMPA permeability: % permeability [1]: 1.23 ± 0.72% | Papp at 50 μM [1]: 0.0708 ×10⁻⁶ cm/s | Permeability% Average [1]: 1.2% | Permeability% R1 [1]: 0.47% | Permeability% R3 [1]: 1.91% | remaining at 8 h [2]: 14 ± 4.4% | SIF stability, Residual peptide Average (porcine pancreatin): 14.00 | microsomal CLint [3, 7]: 92.9 µL/min/mg | microsomal CLint [3, 8]: 68.2 µL/min/mg | microsomal CLint [3, 9]: 83.9 µL/min/mg | half-life [3, 10]: 14.9 min | half-life [3, 11]: 20.3 min | half-life [3, 12]: 16.5 min | half-life ([3]; Metabolic stability: Half life T1/2 (min), RLMs, mean and SD, three measurements): 17.3 ± 2.3 min | microsomal CLint [3, 13]: 82 ± 10 µL/min/mg | microsomal CLint ([3]; Metabolic stability: RLM CL Average, summary table, average of R1-R3): 81.7 µL/min/mg | microsomal CLint [3, 14]: 92.9 µL/min/mg | microsomal CLint [3, 15]: 68.2 µL/min/mg | microsomal CLint [3, 16]: 83.9 µL/min/mg
SMILES: O=C1C[C@H]2CCCN2C(=O)[C@H](Cc2ccccc2)NC(=O)[C@@H](NC(=O)c2ccc(Cl)s2)CSCCS(=O)(=O)CCSCCN1 [peptide 11]
